Measurements published in US7691844B2, “Nonpeptide substituted spirobenzoazepines as vasopressin antagonists” (Ortho-McNeil Pharmaceutical, Inc., priority 2000, dated 2010).

How the values were obtained:
V1a = V1a (Homo sapiens, UniProt P37288); assay: In-vitro receptor binding assay (3H-arginine-8-vasopressin), V1a; conditions: for inhibition at 0.1 µM: read-out: Receptor Binding V1a (% Inh. @ concentration in μM)
Protocol: (§1) (A) In-Vitro Binding Assay […] The reaction plates are allowed to sit at room temperature for one hour. The samples are filtered through Unifilter GF/C plates (presoaked in 0.3 polyethyleneimine). The plates are washed 5 times with cold physiological saline containing 0.05% Tween 20. After drying, the bottom of the filter plates are sealed and 0.025 ml of Microscint-20 is added to each filter. The top of the plate is sealed, and the plate is counted. Non-specific binding is determined by the addition of 1.25 μM […]-vasopressin in those wells. % Inh. is calculated as follows: […]

human V2 receptor = human V2 receptor (Homo sapiens, UniProt P30518); assay: In-vitro receptor binding assay (3H-arginine-8-vasopressin), V2
human V2 receptor, sequence (P30518 whole entry): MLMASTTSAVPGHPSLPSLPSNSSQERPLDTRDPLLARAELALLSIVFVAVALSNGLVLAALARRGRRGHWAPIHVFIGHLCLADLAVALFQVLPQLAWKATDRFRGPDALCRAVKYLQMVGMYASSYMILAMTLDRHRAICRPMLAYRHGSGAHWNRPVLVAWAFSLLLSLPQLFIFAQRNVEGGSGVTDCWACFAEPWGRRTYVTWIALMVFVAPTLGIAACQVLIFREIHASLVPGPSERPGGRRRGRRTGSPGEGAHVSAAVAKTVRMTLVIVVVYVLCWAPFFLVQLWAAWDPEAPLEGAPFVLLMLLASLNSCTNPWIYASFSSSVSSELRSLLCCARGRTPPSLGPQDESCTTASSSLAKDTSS
Protocol: as §1

[1] = @ 1 μM, read-out: Receptor Binding V2 (% Inh. @ concentration in μM)
[2] = @ 0.1 μM, read-out: Receptor Binding V2 (% Inh. @ concentration in μM)

V1a, sequence (P37288 whole entry): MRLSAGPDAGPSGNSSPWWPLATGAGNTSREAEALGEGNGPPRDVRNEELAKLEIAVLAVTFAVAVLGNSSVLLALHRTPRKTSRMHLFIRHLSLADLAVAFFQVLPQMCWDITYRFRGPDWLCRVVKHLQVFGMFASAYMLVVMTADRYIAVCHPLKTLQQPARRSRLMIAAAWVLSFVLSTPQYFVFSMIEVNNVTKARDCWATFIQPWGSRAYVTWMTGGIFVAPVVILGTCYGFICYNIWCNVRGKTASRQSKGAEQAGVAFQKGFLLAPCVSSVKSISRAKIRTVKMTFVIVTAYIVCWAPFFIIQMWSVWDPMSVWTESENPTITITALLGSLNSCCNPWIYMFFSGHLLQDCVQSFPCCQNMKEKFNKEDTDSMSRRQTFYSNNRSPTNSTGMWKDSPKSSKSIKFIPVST

SMILES | IC50 (V1a) [µM] | IC50 (human V2 receptor) [µM] | inhibition at 1 µM (human V2 receptor; [1]) [%] | further results
Cc1ccc(F)cc1C(=O)Nc1ccc(C(=O)N2CCC3(C=C(C(=O)NCCO)CC3)Cc3ccccc32)c(Cl)c1 (stereo not shown) [Compound 11] | 0.028 | 0.01 |  | 
O=CC1=CC2(CC1)CCN(C(=O)c1ccc(NC(=O)c3ccccc3-c3ccccc3)cc1)c1ccccc1C2 (stereo not shown) [Compound 2, 4-(2-Phenylbenzoyl-4-aminobenzoyl)-3′-(formyl)-4-aza-[6,4]-spiro-[5,6]-benzoundec-2′-ene] | 0.016 | 0.029 |  | 
O=C(Nc1ccc(F)cc1)N1CCC2(C=CCCC2)Cc2ccccc21 (stereo not shown) [Compound 62] |  |  |  | Receptor Binding V1a (% Inh. @ concentration in μM) (V1a; @ 1 μM): 5% @ 1; Receptor Binding V2 (% Inh. @ concentration in μM) (human V2 receptor; @ 1 μM): 4% @ 1
CCCCCCCOc1ccc(C(=O)N2CCC3(C=CCCC3)Cc3ccccc32)cc1 (stereo not shown) [Compound 76] | 1 |  | 0 | 
O=C(Nc1ccc(C(=O)N2CCC3(C=CCCC3)Cc3ccccc32)cc1)c1ccncc1 (stereo not shown) [Compound 104] | 0.051 |  | 36 | 
O=C(c1cc(F)cc(F)c1)N1CCC2(C=CCCC2)Cc2ccccc21 (stereo not shown) [Compound 47] | 0.39 |  |  | Receptor Binding V2 (% Inh. @ concentration in μM) (human V2 receptor; @ 10 μM): 29% @ 10
COCCN1CCN(CC2=CC3(CC2)CCN(C(=O)c2ccc(NC(=O)c4cc(F)ccc4C)cc2Cl)c2ccccc2C3)CC1 (stereo not shown) [Compound 140] |  |  |  | inhibition at 0.1 µM (V1a): 41%; inhibition at 0.1 µM (human V2 receptor; [2]): 65%
O=C(c1ccc(O)cc1)N1CCC2(C=CCCC2)Cc2ccccc21 (stereo not shown) [Compound 78] | 0.51 |  | 3 | 
Cc1ccc(C(=O)Nc2ccc(C(=O)N3CCC4(C=CCCC4)Cc4ccccc43)cc2)cc1C (stereo not shown) [Compound 81] | 0.14 |  | 47 | 
COc1ccc(C(=O)N2CCC3(CCCCC3=O)Cc3ccccc32)cc1 (stereo not shown) [Compound 29] | 0.013 |  | 8 | 
COc1cc(C(=O)N2CC[C@@]3(C=C(C(=O)NCCN(C)C)CC3)Cc3ccccc32)ccc1-n1ccc(CO)c1 [Compound 198] | 0.016 |  |  | inhibition at 0.1 µM (human V2 receptor; [2]): 0%
CNCC1=CC2(CC1)CCN(C(=O)c1ccc(NC(=O)c3cc(F)ccc3C)cc1Cl)c1ccccc1C2 (stereo not shown) [Compound 139] |  |  |  | inhibition at 0.1 µM (V1a): 0%; inhibition at 0.1 µM (human V2 receptor; [2]): 17%
O=C(c1cccc(C(F)(F)F)c1)N1CCC2(C=CCCC2)Cc2ccccc21 (stereo not shown) [Compound 56] | 4.3 |  |  | inhibition at 10 µM (human V2 receptor; @ 10 μM, read-out: Receptor Binding V2 (% Inh. @ concentration in μM)): 0%
CSc1ccc(C(=O)N2CCC3(C=CCCC3)Cc3ccccc32)cc1 (stereo not shown) [Compound 92] | 0.066 |  | 0 | 
O=C(c1ccncc1)N1CCC2(C=CCCC2)Cc2ccccc21 (stereo not shown) [Compound 35] | 1.4 | > 25 |  | 
Cc1ccc(F)cc1C(=O)Nc1ccc(C(=O)N2CCC3(C=C(C(=O)NCCN(C)C)CC3)Cc3ccccc32)c(Cl)c1 (stereo not shown) [Compound 136] |  | 0.052 |  | inhibition at 0.1 µM (V1a): 60%
O=C(Nc1ccccc1)c1ccc(C(=O)N2CCC3(C=CCCC3)Cc3ccccc32)cc1 (stereo not shown) [Compound 82, 4-(4-Anilinocarbonylbenzoyl)-4-aza-[6,5]-spiro-[5,6]-benzododec-2′-ene] | 0.02 |  | 41 | 
CN(C)c1ccc(C(=O)N2CCC3(C=CCCC3)Cc3ccccc32)cc1 (stereo not shown) [Compound 45] | 0.11 | 10 |  | 
Cc1ccccc1NC(=O)c1ccc(C(=O)N2CCC3(C=CCCC3)Cc3ccccc32)cc1 (stereo not shown) [Compound 98] | 0.027 | 0.2 |  | 
Nc1ccc(C(=O)Nc2ccc(C(=O)N3CCC4(C=CCCC4)Cc4ccccc43)cc2)cc1 (stereo not shown) [Compound 70] | 0.01 |  |  | Receptor Binding V2 (% Inh. @ concentration in μM) (human V2 receptor; @ 1 μM): 21% @ 1
COc1cc(-n2ccc(C=O)c2)ccc1C(=O)N1CCC2(C=C(C(=O)NCCN(C)C)CC2)Cc2ccccc21 (stereo not shown) [Compound 195] | 0.3 |  | 18 | 

SMILES | IC50 (V1a) [µM] | IC50 (human V2 receptor) [µM] | inhibition at 1 µM (human V2 receptor; [1]) [%] | further results
CC(C)CCOc1ccc(C(=O)N2CCC3(C=CCCC3)Cc3ccccc32)cc1 (stereo not shown) [Compound 179] | 0.096 |  | 15 | 
COc1cc(-n2ccc(CO)c2)ccc1C(=O)N1CCC2(C=CCCC2)Cc2ccccc21 (stereo not shown) [Compound 165] | 0.042 |  |  | inhibition at 0.25 µM (human V2 receptor; @ 0.25 μM, read-out: Receptor Binding V2 (% Inh. @ concentration in μM)): 25%
O=C(c1ccccc1F)N1CCC2(C=CCCC2)Cc2ccccc21 (stereo not shown) [Compound 107] | 0.06 |  | 21 | 
Cc1ccn(-c2ccc(C(=O)N3CCC4(C=C(C(=O)NCCN(C)C)CC4)Cc4ccccc43)cc2)n1 (stereo not shown) [Compound 209] | 0.055 |  | 43 | 
Cc1ccc(F)cc1C(=O)Nc1ccc(C(=O)N2CCC3(C=CCCC3)Cc3ccccc32)c(Cl)c1 (stereo not shown) [Compound 111] | 0.8 | 0.045 |  | 
O=C(Nc1ccc(C(=O)N2CCC3(C=CCCC3)Cc3ccccc32)cc1)c1ccccc1F (single isomer, unassigned) [Compound 109] | 0.014 | 0.3 |  | 
O=C(Nc1ccccc1)Nc1ccc(C(=O)N2CCC3(C=CCCC3)Cc3ccccc32)cc1 (stereo not shown) [Compound 83] | 0.17 |  | 25 | 
COc1cc(NC(=O)c2cc(F)ccc2C)ccc1C(=O)N1CCC2(C=CCCC2)Cc2ccccc21 (stereo not shown) [Compound 116] | 0.019 | 0.091 |  | 
CCCCC(=O)N1CCC(Oc2ccc(C(=O)N3CCC4(C=CCCC4)Cc4ccccc43)cc2F)CC1 (stereo not shown) [Compound 174] |  |  | 8 | inhibition at 0.1 µM (V1a): 0%
COC(=O)C1=CC2(CC1)CCN(C(=O)c1ccc(NC(=O)c3ccccc3F)cc1)c1ccccc1C2 (stereo not shown) [Compound 133] | 0.015 |  |  | inhibition at 0.1 µM (human V2 receptor; [2]): 23%
O=C(Nc1ccc(C(=O)N2CCC3(C=C(C(=O)N4CCN(c5ccncc5)CC4)CC3)Cc3ccccc32)cc1)c1ccccc1-c1ccccc1 (stereo not shown) [Compound 145] |  | 0.066 |  | inhibition at 0.1 µM (V1a): 66%
CC(C)COc1ccc(C(=O)N2CCC3(C=CCCC3)Cc3ccccc32)cc1 (stereo not shown) [Compound 86] | 0.065 |  | 10 | 
COc1cc(C(=O)N2CC[C@]3(C=C(C(=O)NCCN(C)C)CC3)Cc3ccccc32)ccc1-n1ccc(CO)c1 [Compound 197] | 0.006 |  |  | inhibition at 0.1 µM (human V2 receptor; [2]): 0%
N#Cc1cccc(C(=O)N2CCC3(C=CCCC3)Cc3ccccc32)c1 (stereo not shown) [Compound 52] | 0.53 |  |  | Receptor Binding V2 (% Inh. @ concentration in μM) (human V2 receptor; @ 10 μM): 28% @ 10
O=C(Nc1ccc(C(=O)N2CCC3(C=CCCC3)Cc3ccccc32)c(Cl)c1)c1ccccc1-c1ccccc1 (stereo not shown) [Compound 118] |  | 0.085 |  | inhibition at 0.1 µM (V1a): 40%
Cc1ccc(F)cc1C(=O)Nc1ccc(C(=O)N2CCC3(C=C(CN4CCN(CCN5CCOCC5)CC4)CC3)Cc3ccccc32)c(Cl)c1 (stereo not shown) [Compound 141] |  | 0.056 |  | inhibition at 0.1 µM (V1a): 44%
COc1cc(C(=O)N2CCC3(C=C(C(=O)NCCN(C)C)CC3)Cc3ccccc32)ccc1-n1ccc(CO)c1 (stereo not shown) [Compound 190, 4-[3-Methoxy-4-(3-hydroxymethylpyrrol-1-yl)benzoyl]-3′-[2-(N,N-dimethylamino)ethylcarboxamido]-4-aza-[6,4]-spiro-[5,6]-benzoundec-2′-ene] | 0.008 |  | 28 | 
CN(C)CCNC(=O)C1=CC2(CC1)CCN(C(=O)c1ccc(N)cc1)c1ccccc1C2 (stereo not shown) [Compound 191] | 1.2 |  |  | Receptor Binding V2 (% Inh. @ concentration in μM) (human V2 receptor; @ 1 μM): 15% @ 1
Cc1ccccc1C(=O)Nc1ccc(C(=O)C2Cc3ccccc3CC3(C=CCCC3)C2)cc1 (stereo not shown) [Compound 130] | 0.047 |  |  | Receptor Binding V2 (% Inh. @ concentration in μM) (human V2 receptor; @ 0.1 μM): 15% @ 0.1
O=C(NCCN1CCCC1)C1=CC2(CC1)CCN(C(=O)c1ccc(NC(=O)c3ccccc3-c3ccccc3)cc1)c1ccccc1C2 (stereo not shown) [Compound 135] | 0.013 | 0.024 |  | 
